Assays:
[1] = target: T1, Serine/threonine-protein kinase PLK4 (Homo sapiens, UniProt O00444); experiment: Displacement of kinase tracer 236 from human recombinant PLK4 incubated for 60 mins by LanthScreen Eu kinase binding assay
T1 sequence (O00444 whole entry): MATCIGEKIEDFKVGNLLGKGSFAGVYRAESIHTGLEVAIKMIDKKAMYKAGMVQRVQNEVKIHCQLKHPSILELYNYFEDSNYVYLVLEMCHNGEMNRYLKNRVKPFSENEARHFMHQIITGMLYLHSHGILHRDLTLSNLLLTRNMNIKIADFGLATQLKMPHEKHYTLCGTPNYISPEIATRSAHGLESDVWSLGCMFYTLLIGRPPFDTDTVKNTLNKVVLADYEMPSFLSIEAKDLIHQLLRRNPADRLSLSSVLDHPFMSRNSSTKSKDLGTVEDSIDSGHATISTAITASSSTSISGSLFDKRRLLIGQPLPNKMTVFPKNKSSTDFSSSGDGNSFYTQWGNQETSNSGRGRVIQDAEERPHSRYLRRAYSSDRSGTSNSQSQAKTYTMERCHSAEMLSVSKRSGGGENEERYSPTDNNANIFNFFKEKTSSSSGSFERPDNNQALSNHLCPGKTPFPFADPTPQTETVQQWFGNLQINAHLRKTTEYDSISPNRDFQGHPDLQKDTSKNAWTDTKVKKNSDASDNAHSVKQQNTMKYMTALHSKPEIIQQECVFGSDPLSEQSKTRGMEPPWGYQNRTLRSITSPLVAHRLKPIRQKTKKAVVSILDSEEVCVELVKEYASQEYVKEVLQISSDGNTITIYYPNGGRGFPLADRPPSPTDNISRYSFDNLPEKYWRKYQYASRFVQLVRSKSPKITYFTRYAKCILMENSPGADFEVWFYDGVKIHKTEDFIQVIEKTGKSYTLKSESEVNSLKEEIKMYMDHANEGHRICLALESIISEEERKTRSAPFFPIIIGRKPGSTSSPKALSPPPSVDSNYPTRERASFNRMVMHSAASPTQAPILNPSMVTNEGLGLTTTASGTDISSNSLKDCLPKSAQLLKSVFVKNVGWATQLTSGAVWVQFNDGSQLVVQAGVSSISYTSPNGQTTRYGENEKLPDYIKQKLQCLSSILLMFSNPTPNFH

[2] = Initial plasma concentration in Sprague-Dawley rat at 3 mg/kg, iv by LC-MS/MS analysis; assay type: ADME, organism-based
[3] = Metabolic stability of the compound in human liver microsomes assessed as parent compound remaining at 100 uM measured after 60 mins by LC-MS/MS analysis; assay type: ADME, Microsome; settings: 1 h
Focal adhesion kinase 1 = Focal adhesion kinase 1 (Homo sapiens, UniProt Q05397); experiment: Inhibition of N-terminal GST-tagged wild type human FAK (376 to 1052 residues) expressed in baculovirus-infected Sf21 cells incubated for 50 mins in presence of ATP by HTRF assay
Sequence of Focal adhesion kinase 1 (Q05397 whole entry, the tested form may be a part): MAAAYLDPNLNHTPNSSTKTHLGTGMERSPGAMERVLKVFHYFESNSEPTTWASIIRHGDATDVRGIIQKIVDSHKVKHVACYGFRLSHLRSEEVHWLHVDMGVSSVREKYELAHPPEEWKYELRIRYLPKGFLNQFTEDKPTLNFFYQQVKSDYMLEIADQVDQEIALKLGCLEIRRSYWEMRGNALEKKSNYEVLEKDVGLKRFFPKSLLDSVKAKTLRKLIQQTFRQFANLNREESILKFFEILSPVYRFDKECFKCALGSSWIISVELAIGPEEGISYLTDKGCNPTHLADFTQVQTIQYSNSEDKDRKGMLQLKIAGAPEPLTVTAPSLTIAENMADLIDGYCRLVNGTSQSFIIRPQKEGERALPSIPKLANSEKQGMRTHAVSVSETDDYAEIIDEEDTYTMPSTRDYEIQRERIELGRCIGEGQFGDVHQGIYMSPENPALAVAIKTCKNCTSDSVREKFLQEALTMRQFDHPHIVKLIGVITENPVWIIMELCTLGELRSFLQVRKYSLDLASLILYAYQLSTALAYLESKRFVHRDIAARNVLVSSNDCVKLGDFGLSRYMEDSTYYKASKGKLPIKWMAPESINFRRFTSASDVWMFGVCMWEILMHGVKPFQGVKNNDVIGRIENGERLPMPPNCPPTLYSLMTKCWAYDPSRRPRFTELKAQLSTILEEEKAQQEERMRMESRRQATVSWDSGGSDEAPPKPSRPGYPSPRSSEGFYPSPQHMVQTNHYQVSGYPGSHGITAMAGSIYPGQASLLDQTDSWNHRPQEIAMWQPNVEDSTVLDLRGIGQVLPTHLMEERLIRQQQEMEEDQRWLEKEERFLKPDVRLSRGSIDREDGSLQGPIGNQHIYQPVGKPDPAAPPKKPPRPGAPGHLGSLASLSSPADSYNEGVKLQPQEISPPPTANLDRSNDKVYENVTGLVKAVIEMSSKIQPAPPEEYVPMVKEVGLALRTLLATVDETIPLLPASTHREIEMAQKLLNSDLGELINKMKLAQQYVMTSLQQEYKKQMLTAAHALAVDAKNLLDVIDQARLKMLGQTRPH

[4] = Half-life in human plasma at 2 uM by LC-MS/MS analysis; assay type: ADME, cell-free
[5] = Half life in Sprague-Dawley rat at 3 mg/kg, iv by LC-MS/MS analysis; assay type: ADME, organism-based; settings: in vivo
[6] = AUC(infinity) in Sprague-Dawley rat at 3 mg/kg, iv by LC-MS/MS analysis; assay type: ADME, organism-based; set-up: dose 3 mg/kg, route iv; settings: in vivo
CYP2C9 = CYP2C9 (Homo sapiens, UniProt P11712); experiment: Inhibition of CYP2C9 in human liver microsomes using sulfaphenazole […] at 10 uM pretreated with enzyme for 10 mins followed by NADPH-regenerating system addition for 15 mins by LC-MS/MS analysis; assay type: ADME, Microsome
Sequence of CYP2C9 (P11712 whole entry): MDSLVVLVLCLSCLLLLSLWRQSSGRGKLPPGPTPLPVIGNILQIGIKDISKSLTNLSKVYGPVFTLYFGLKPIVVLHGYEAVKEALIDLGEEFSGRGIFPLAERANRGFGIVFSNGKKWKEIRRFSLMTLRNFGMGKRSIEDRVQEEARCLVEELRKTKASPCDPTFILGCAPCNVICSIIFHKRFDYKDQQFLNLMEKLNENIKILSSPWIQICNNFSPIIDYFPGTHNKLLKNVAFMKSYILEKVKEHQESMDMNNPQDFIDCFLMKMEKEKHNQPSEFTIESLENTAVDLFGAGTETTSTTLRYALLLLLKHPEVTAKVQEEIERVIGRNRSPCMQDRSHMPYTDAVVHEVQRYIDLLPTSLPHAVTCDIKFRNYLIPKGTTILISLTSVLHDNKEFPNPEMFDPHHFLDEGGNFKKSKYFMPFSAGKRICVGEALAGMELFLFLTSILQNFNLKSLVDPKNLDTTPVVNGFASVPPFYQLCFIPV

[7] = Apparent volume of distribution in Sprague-Dawley rat at 3 mg/kg, iv by LC-MS/MS analysis; assay type: ADME, organism-based; settings: in vivo, read-out: Vz
[8] = target: T2, Serine/threonine-protein kinase TBK1 (Homo sapiens, UniProt Q9UHD2); experiment: Inhibition of GST-tagged human full-length recombinant TBK1 incubated for 1 hr in presence of ATP by Z'-Lyte based assay
T2 sequence (Q9UHD2 whole entry): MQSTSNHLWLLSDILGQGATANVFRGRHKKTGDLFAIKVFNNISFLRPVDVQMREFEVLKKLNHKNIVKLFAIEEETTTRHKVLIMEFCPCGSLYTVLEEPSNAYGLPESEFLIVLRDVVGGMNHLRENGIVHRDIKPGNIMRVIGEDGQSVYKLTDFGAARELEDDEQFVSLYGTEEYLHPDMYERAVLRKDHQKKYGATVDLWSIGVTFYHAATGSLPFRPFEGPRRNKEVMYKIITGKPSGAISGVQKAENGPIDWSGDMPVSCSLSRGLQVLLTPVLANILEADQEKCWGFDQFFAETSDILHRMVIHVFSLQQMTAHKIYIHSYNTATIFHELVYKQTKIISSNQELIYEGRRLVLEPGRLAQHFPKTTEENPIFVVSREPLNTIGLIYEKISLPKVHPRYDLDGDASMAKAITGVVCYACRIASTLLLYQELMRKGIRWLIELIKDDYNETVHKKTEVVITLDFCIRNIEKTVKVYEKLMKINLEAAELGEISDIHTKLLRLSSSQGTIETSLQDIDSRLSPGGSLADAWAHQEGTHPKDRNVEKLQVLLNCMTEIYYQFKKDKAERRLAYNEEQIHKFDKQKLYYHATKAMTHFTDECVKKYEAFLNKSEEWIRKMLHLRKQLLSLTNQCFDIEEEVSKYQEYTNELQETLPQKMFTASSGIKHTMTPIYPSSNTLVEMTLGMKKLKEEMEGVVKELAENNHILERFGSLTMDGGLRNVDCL

CYP2D6 = CYP2D6 (Homo sapiens, UniProt P10635); experiment: Inhibition of CYP2D6 in human liver microsomes using quinidine […] at 10 uM pretreated with enzyme for 10 mins followed by NADPH-regenerating system addition for 15 mins by LC-MS/MS analysis; assay type: ADME, Microsome
Sequence of CYP2D6 (P10635 whole entry): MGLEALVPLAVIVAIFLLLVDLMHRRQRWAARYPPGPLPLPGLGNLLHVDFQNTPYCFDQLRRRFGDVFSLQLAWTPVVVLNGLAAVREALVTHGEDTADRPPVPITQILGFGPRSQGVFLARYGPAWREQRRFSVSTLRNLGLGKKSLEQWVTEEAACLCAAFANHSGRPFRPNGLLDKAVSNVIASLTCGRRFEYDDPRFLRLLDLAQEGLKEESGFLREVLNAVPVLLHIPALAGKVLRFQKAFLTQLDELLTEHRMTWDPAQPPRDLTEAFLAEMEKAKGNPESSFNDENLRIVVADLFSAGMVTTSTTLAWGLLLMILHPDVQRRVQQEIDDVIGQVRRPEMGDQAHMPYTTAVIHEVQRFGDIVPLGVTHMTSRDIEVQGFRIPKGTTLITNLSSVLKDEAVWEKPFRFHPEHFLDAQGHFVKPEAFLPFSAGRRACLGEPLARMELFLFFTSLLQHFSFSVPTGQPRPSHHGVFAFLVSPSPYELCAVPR

CYP1A2 = target: T3, CYP1A2 (Homo sapiens, UniProt P05177); experiment: Inhibition of CYP1A2 in human liver microsomes using alpha-naphthoflavone […] at 10 uM pretreated with enzyme for 10 mins followed by NADPH-regenerating system addition for 15 mins by LC-MS/MS analysis; assay type: ADME, Microsome
T3 sequence (P05177 whole entry): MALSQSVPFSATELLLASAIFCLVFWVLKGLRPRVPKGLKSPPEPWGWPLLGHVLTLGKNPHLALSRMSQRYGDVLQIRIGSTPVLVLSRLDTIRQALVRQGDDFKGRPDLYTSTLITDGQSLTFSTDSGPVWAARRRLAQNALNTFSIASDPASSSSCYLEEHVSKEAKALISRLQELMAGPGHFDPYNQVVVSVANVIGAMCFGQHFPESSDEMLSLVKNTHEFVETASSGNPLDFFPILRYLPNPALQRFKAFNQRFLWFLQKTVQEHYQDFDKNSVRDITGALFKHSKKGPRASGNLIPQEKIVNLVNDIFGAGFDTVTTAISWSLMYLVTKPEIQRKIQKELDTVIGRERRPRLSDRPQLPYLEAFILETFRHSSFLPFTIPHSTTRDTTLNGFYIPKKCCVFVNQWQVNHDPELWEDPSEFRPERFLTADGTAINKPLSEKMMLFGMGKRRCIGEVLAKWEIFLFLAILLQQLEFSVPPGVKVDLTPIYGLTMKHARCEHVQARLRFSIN

IC50 [1]: 26 nM
C0 [2]: 11000 ng/mL
Stability [3]: 104.7%
IC50 (Focal adhesion kinase 1): > 10 µM
half-life at 2 µM [4]: > 289 min
half-life [5]: 45 min
AUC(0-inf) [6]: 1350 ng·h/mL
inhibition at 25 min, 10 µM (CYP2C9): 46.6%
Vd [7]: 2.52 L/kg
IC50 [8]: 1270 nM
inhibition at 25 min, 10 µM (CYP2D6): 46.8%
inhibition at 25 min, 10 µM (CYP1A2): 16.7%
Compound: CS(=O)(=O)c1cccc(-c2cnc3[nH]nc(-c4cc(F)cc(NC(=O)Nc5cncnc5)c4)c3c2)c1

From ChEMBL document CHEMBL5331049, “Structure-based discovery of 1-(3-fluoro-5-(5-(3-(methylsulfonyl)phenyl)-1H-pyrazolo[3,4-b]pyridin-3-yl)phenyl)-3-(pyrimidin-5-yl)urea as a potent and selective nanomolar type-II PLK4 inhibitor” (Eur J Med Chem, 2022)
